Assays:
[1] = compound: COc1cc2ncnc(Nc3ccc(F)c(Cl)c3)c2cc1OCCCN1CCOCC1 [Gefitinib]; conditions: max 10 µM
Summary of the method: (§1)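 Viability was measured with CellTiter-Glo 2.0 luminescence after 72 hours of dosing at a final DMSO of typically 0.2%, and scaled between blank-well and DMSO-well means. Beforehand, cancer cell lines sat 24 hours at 37°C and 5% CO2 in 1536-well plates in 7.5 μl DMEM/F12 or RPMI with 10% FBS. A non-linear mixed effects model fitted two-parameter logistic curves to the dose responses. The single-agent IC50 comes from these fits.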

[2] = compound: CC(=O)c1c(C)c2cnc(Nc3ccc(N4CCNCC4)cn3)nc2n(C2CCCC2)c1=O [Palbociclib]; conditions: max 10 µM
Summary of the method: as §1

[3] = compound: CCN(CCO)CCCOc1ccc2c(Nc3cc(CC(=O)Nc4cccc(F)c4)[nH]n3)ncnc2c1 [AZD2811]; conditions: max 1 µM
Summary of the method: as §1

[4] = compound: CC1=C(C(=CC=C1)Cl)NC(=O)C2=CN=C(S2)NC3=CC(=NC(=N3)C)N4CCN(CC4)CCO [Dasatinib]; conditions: max 2 µM
Summary of the method: as §1

[5] = compound: Cc1c2c(nn1C)CSCc1cc(n(C)n1)CSc1cc(c3ccccc3c1)OCCCc1c(C(=O)O)n(C)c3c-2c(Cl)ccc13 [AZD5991]; conditions: max 1 µM
Summary of the method: as §1

[6] = compound: CCc1c2c(nc3ccc(O)cc13)-c1cc3c(c(=O)n1C2)COC(=O)[C@]3(O)CC [SN-38]; conditions: max 0.3 µM
Summary of the method: as §1

[7] = compound: C[C@@H](c1ccc2nccn2c1)n1nnc2ncc(-c3cnn(C)c3)nc21 [Savolitinib]; conditions: max 1 µM
Summary of the method: as §1

[8] = compound: CN(C)CCCOc1ccc(-c2ccc3ncc4c(c3c2)n(C2CCOCC2)c(=O)n4C)cn1 [AZD0156]; conditions: max 3 µM
Summary of the method: as §1

[9] = compound: COc1cccc2c1C(=O)c1c(O)c3c(c(O)c1C2=O)C[C@@](O)(C(=O)CO)C[C@@H]3O[C@H]1C[C@H](N)[C@H](O)[C@H](C)O1 [Doxorubicin]; conditions: max 1 µM
Summary of the method: as §1

[10] = compound: CN(CC[C@H](CSC1=CC=CC=C1)NC2=C(C=C(C=C2)S(=O)(=O)NC(=O)C3=CC=C(C=C3)N4CCC(CC4)[C@H](C5=CC=CC=C5C6=CC=C(C=C6)Cl)O)S(=O)(=O)C(F)(F)F)CCO [AZD4320]; conditions: max 1 µM
Summary of the method: as §1

[11] = compound: C[C@@H](Nc1cc(F)cc(F)c1)c1cc(C(=O)N(C)C)cc2c(=O)cc(N3CCOCC3)oc12 [AZD8186]; conditions: max 3 µM
Summary of the method: as §1

[12] = compound: Cc1cc2ncnn2cc1Nc1ncc2c(n1)n(C1CCOCC1)c(=O)n2C [AZD7648]; conditions: max 10 µM
Summary of the method: as §1

[13] = compound: CC(=O)Nc1cccc(-n2c(=O)n(C3CC3)c(=O)c3c(Nc4ccc(I)cc4F)n(C)c(=O)c(C)c32)c1 [Trametinib]; conditions: max 1 µM
Summary of the method: as §1

[14] = compound: COc1nnc2ccc(N3CCC(c4ccc(OCCN5CCN(C)C(=O)[C@H]5C)cc4)CC3)nn12 [AZD5153]; conditions: max 1 µM
Summary of the method: as §1

[15] = compound: C[C@@H](Oc1cc(-c2cnn(C3CCNCC3)c2)cnc1N)c1c(Cl)ccc(F)c1Cl [Crizotinib]; conditions: max 10 µM
Summary of the method: as §1

[16] = compound: COc1cccc(OCCCN)c1-c1cc(Nc2cnc(C#N)cn2)n[nH]1 [Prexasertib]; conditions: max 1 µM
Summary of the method: as §1

[17] = compound: CC(C)n1c(=O)n(C)c2cnc3cc(F)c(-c4ccc(OCCCN5CCCCC5)nc4)cc3c21 [AZD1390]; conditions: max 0.3 µM
Summary of the method: as §1

[18] = compound: CS(=O)(=O)CCNCc1ccc(-c2ccc3ncnc(Nc4ccc(OCc5cccc(F)c5)c(Cl)c4)c3c2)o1 [Lapatinib]; conditions: max 10 µM
Summary of the method: as §1

[19] = compound: CC1(C)CCC(CN2CCN(c3ccc(C(=O)NS(=O)(=O)c4ccc(NCC5CCOCC5)c([N+](=O)[O-])c4)c(Oc4cnc5[nH]ccc5c4)c3)CC2)=C(c2ccc(Cl)cc2)C1 [Venetoclax]; conditions: max 1 µM
Summary of the method: as §1

[20] = compound: O=C(c1cc(Cc2n[nH]c(=O)c3ccccc23)ccc1F)N1CCN(C(=O)C2CC2)CC1 [Olaparib]; conditions: max 10 µM
Summary of the method: as §1

[21] = compound: CC1=CN2[C@@H](C1)C=NC3=CC(=C(C=C3C2=O)OC)OCCCCCOC4=C(C=C5C(=C4)N=C[C@@H]6CC(=CN6C5=O)C)OC [SG3199]; conditions: max 0.001 µM
Summary of the method: as §1

[22] = compound: Cn1cnc2c(F)c(Nc3ccc(Br)cc3Cl)c(C(=O)NOCCO)cc21 [Selumetinib]; conditions: max 10 µM
Summary of the method: as §1

[23] = compound: C1CN(CCC1(C(=O)N[C@@H](CCO)C2=CC=C(C=C2)Cl)N)C3=NC=NC4=C3C=CN4 [Capivasertib]; conditions: max 10 µM
Summary of the method: as §1

[24] = compound: C[C@@H]1COCCN1C2=NC(=NC(=C2)C3(CC3)[S@](=N)(=O)C)C4=C5C=CNC5=NC=C4 [AZD6738]; conditions: max 10 µM
Summary of the method: as §1

[25] = compound: Cc1nc(-c2cn3c(n2)-c2ccc(-c4cnn(C(C)(C)C(N)=O)c4)cc2OCC3)n(C(C)C)n1 [Taselisib]; conditions: max 10 µM
Summary of the method: as §1

[26] = compound: C=CCn1c(=O)c2cnc(Nc3ccc(N4CCN(C)CC4)cc3)nc2n1-c1cccc(C(C)(C)O)n1 [AZD1775]; conditions: max 3 µM
Summary of the method: as §1

[27] = compound: COc1cc(Nc2ncc3c(n2)-c2ccc(Cl)cc2C(c2c(F)cccc2OC)=NC3)ccc1C(=O)O [Alisertib]; conditions: max 10 µM
Summary of the method: as §1

Cell Line | IC50, cell viability 72 h [1] | IC50, cell viability 72 h [2] | IC50, cell viability 72 h [3] | IC50, cell viability 72 h [4] | IC50, cell viability 72 h [5] | IC50, cell viability 72 h [6] | IC50, cell viability 72 h [7] | IC50, cell viability 72 h [8] | IC50, cell viability 72 h [9] | IC50, cell viability 72 h [10] | IC50, cell viability 72 h [11] | IC50, cell viability 72 h [12] | IC50, cell viability 72 h [13] | IC50, cell viability 72 h [14] | IC50, cell viability 72 h [15] | IC50, cell viability 72 h [16] | IC50, cell viability 72 h [17] | IC50, cell viability 72 h [18] | IC50, cell viability 72 h [19] | IC50, cell viability 72 h [20] | IC50, cell viability 72 h [21] | IC50, cell viability 72 h [22] | IC50, cell viability 72 h [23] | IC50, cell viability 72 h [24] | IC50, cell viability 72 h [25] | IC50, cell viability 72 h [26] | IC50, cell viability 72 h [27]
CL-11 (Colorectal Carcinoma) | > 10 µM | > 10 µM | > 1000 nM | > 2000 nM | > 1000 nM | 57.9 nM | > 1000 nM | > 3000 nM | > 1000 nM | > 1000 nM | > 3000 nM | > 10 µM | 33.5 nM | 224 nM | > 10 µM | 90.3 nM | > 300 nM | > 10 µM | > 1000 nM | > 10 µM | > 1 nM | 1.06 µM | > 10 µM | 3.04 µM | > 10 µM | 859 nM | 0.527 µM
OVCAR-3 (Ovarian Carcinoma) | > 10 µM | > 10 µM | > 1000 nM | > 2000 nM | > 1000 nM | 231 nM | > 1000 nM | > 3000 nM | > 1000 nM | > 1000 nM | > 3000 nM | > 10 µM | > 1000 nM | 475 nM | > 10 µM | 198 nM | > 300 nM | > 10 µM | > 1000 nM | > 10 µM | > 1 nM | > 10 µM | > 10 µM | > 10 µM | 5.63 µM | 1600 nM | > 10 µM
NCI-H2373 (Mesothelioma) | > 10 µM | > 10 µM | > 1000 nM | > 2000 nM | > 1000 nM | 58.9 nM | > 1000 nM | > 3000 nM | 313 nM | > 1000 nM | > 3000 nM | > 10 µM | > 1000 nM | > 1000 nM | > 10 µM | > 1000 nM | > 300 nM | > 10 µM | > 1000 nM | > 10 µM | > 1 nM | > 10 µM | > 10 µM | > 10 µM | 3.52 µM | > 3000 nM | > 10 µM
PA-TU-8988T (Pancreatic Carcinoma) | > 10 µM | > 10 µM | > 1000 nM | 664 nM | > 1000 nM | 185 nM | > 1000 nM | > 3000 nM | 940 nM | > 1000 nM | > 3000 nM | > 10 µM | > 1000 nM | 193 nM | > 10 µM | > 1000 nM | > 300 nM | > 10 µM | > 1000 nM | > 10 µM | > 1 nM | > 10 µM | > 10 µM | > 10 µM | 6.15 µM | 1290 nM | > 10 µM

Reference: the supplement of paper PMC11061612
